Columns and labels:
[1] = test system: Tomato seeds of hybrid tomato var. Royal Mounty; experiment: In vitro tomato seedling root growth bioassay (agar medium); format: in vivo; conditions: for tomato seedling root length, compared to LCO: 22° C., FIG. 5
Protocol: Tomato seeds of hybrid tomato var. Royal Mounty were surface sterilized with 10% bleach solution for 10 minutes followed by 3 rinses with sterilized distilled water. Seeds were then dried in a laminar air flow hood for 3 hours. Seeds were then placed in petri-dishes on solidified agar medium containing various concentrations of different sources of the LCO illustrated in FIG. 1b (manufactured by Darmstadt, Germany and Grenoble, France) (also referred to in the examples as the “soybean LCO”) and the inventive CO illustrated in FIG. 2a (also referred to in the examples as the “pea CO” or “CO-V”). Seedling roots were measured by a hand ruler and root fresh weights were taken in a micro balance at day 7. Growth study was done in a growth chamber at 22° C.

[2] = test system: Soybean seeds (Jung seed, var. 8168NRR); experiment: Treatment of soybean seed with various actives (greenhouse); format: in vivo
Protocol: Soybean seeds (Jung seed, var. 8168NRR) were treated with various active molecules. Seeds were treated with a liquid dose rate of 3 fl oz/100 lbs of seed. Seeds were allowed to dry for a 2 hours and planted in greenhouse in plastic pots containing 1:1 sand:perlite mixture. Seedlings were grown for 4 wks with occasional liquid fertilizer applications and then the plants were harvested. The central leaflet from the 2nd trifoliate (from down to top) was isolated and measured for surface area on a WinRhizo scanner. The rest of the plants were used for plant dry weight (DW).

[3] = test system: Siratro (Macroptelium atropurpureum) root segments; experiment: Root hair deformation bioassay, Siratro; conditions: 4 hours in the dark, FIG. 14
Protocol: Siratro (Macroptelium atropurpureum) seeds were germinated on moist filter paper in petriplates. When seedlings roots are about 1-inches long, they are severed from the seedlings and treated with 2 ml of 10^−8M treatment solutions in test tubes for 4 hours in the dark. After treatment time is over the solutions are dyed with Congo Red for 10 minutes. After that root segments are observed under a compound microscope to count the number of deformed root hairs in the most sensitive zone of the root segment. Root hair deformation bioassay was also performed using Red Clover in a similar fashion like Siratro above and only visual observation was made and recorded in text form.

wheat seeds = experiment: Wheat seed germination in petriplates (Example 6); format: in vivo; conditions: 10^−9 M
Protocol: In petriplates on moist filter paper moistened with 10^−9 M treatment solution, canola and wheat seeds were plated for germination. At 18 h after plating, Pea CO induced more canola and wheat seed germination as compared to Pea LCO. Over the period of 21 to 24 hours, seed germination rate for LCO and CO leveled up.

Lab Lab seeds = experiment: Seed germination in multiple crops: Lab Lab; format: in vivo; conditions: 30 h, dark, 22° C., FIG. 23
Protocol: (§1) Similar to the seed germination experiment mentioned above, seeds of different crops were placed on moist filter paper in petriplates containing 5 ml liquid in each. Petriplates with seeds were then kept in the dark at 22° C.

Red Clover seeds = experiment: Seed germination in multiple crops: Red Clover; format: in vivo; conditions: 24 h, dark, 22° C., FIG. 23
Protocol: as §1

Corn seeds = experiment: Corn seed application (greenhouse); format: in vivo; conditions: seed treatment; CO 10^−8 M, LCO 10^−8 M alone or LCO 10^−9 with CO 10^−8; harvested 10 days after planting; FIG. 28
Protocol: Corn seeds were treated with various combinations of Pea CO (10^−8 M) and Pea LCO (10^−8, 10^−9 M). Seeds were planted in greenhouse plastic pots containing 1:1 sand:perlite mixture. Seedlings were harvested 10 days after planting, washed clean and then dried in an oven at 60 C for 48 hr.

Sorghum seeds = experiment: Sorghum seed germination in petriplates; format: in vivo; conditions: CO 10^−8 M, LCO 10^−8 M alone or CO 10^−8 with LCO 10^−9; after 5 days; FIG. 29
Protocol: Sorghum seeds were germinated in petriplates containing liquid treatment solutions. Seedlings were harvested after 5 days and their roots were measured using WinRHIZO scanner.

corn = experiment: Corn field trials, seed application, grain yield; format: in vivo

CC(=O)NC1C(O)OC(CO)C(OC2OC(CO)C(OC3OC(CO)C(OC4OC(CO)C(OC5OC(CO)C(O)C(O)C5N)C(O)C4NC(C)=O)C(O)C3NC(C)=O)C(O)C2NC(C)=O)C1O (stereo not drawn) [Pea CO]
average root growth from all 3 concentrations, compared to LCOs ([1]; FIGS. 7 and 8): significantly better than LCOs
seedling root fresh weight, compared to LCO ([1]; all three levels of concentrations (10^−7, 10^−8 and 10^−9 M), day 7, FIG. 6): outperformed LCO
tomato seedling root length, compared to LCO ([1]; at 10^−7M and 10^−9M, day 7): better
tomato seedling root length, compared to LCO ([1]; at 10^−8M, day 7): equal
root fresh weight, compared to control seedlings ([1]; day 7, control water): significantly better than control seedlings
root length, compared to control seedlings ([1]; day 7, control water): significantly better than control seedlings
plant dry weights (shoot, root or total plant biomass) ([2]; another experiment, vs soybean LCO, isoflavonoids, water, FIG. 13): highest plant dry weights
leaf surface area ([2]; seed treatment 3 fl oz/100 lbs of seed, 4 wks, central leaflet of 2nd trifoliate, vs control (water), FIG. 12): significant increase
leaf surface area, among the three actives (pea LCO, pea CO, China CO) ([2]; seed treatment, 4 wks, FIG. 12): highest leaf surface area
root hair deformation ([3]; 10^−8M treatment solutions): induced root hair deformation
root hair deformation compared to LCO or CO ([3]; 10^−8M): equal to LCO
seed germination at 18 h as compared to Pea LCO (wheat seeds; FIG. 16): more
seed germination rate over 21 to 24 hours (wheat seeds; LCO versus CO): leveled up
seed germination (Lab Lab seeds): better germination
seed germination (Red Clover seeds): better germination
corn seedling dry weight (Corn seeds): increased corn seedling dry weight
sorghum seedling root length (Sorghum seeds): increased seedling root length
YIELD, Response Increase (corn): 3.6 % of Control
YIELD, Mean (N = 10) (corn; 1×10^−8 molar, 1 μg/acre, 3 fl oz per 50 pounds of seed): 188.0 bu/A
less positive yield responses than LCO (corn; amongst the ten trials): 10.0%
CO mean yield less than LCO (corn; less): 4.6 bu/A
less yield increase above the Control than LCO (corn; less): 2.5%
YIELD, Response (corn; over Control): 6.5 bu/A
Positive Yield Response (corn; percent of the ten trials): 80.0%

From patent US12185720B2, “Chitooligosaccharides and methods for use in enhancing plant growth” (NOVOZYMES BIOAG A/S, priority 2011, dated 2025)
